Data published in paper PMC5540273, “Progress towards a public chemogenomic set for protein kinases and a call for contributions” (PLoS ONE, 2017).

Columns and labels:
Assay in all cases: KINOMEscan competition binding
LCK = LCK (Homo sapiens, UniProt P06239); settings: read-out: %Inh LCK
LATS2 = molecular target: T1, LATS2 (Homo sapiens, UniProt Q9NRM7); settings: read-out: %Inh LATS2
T1 sequence (Q9NRM7 1-1088): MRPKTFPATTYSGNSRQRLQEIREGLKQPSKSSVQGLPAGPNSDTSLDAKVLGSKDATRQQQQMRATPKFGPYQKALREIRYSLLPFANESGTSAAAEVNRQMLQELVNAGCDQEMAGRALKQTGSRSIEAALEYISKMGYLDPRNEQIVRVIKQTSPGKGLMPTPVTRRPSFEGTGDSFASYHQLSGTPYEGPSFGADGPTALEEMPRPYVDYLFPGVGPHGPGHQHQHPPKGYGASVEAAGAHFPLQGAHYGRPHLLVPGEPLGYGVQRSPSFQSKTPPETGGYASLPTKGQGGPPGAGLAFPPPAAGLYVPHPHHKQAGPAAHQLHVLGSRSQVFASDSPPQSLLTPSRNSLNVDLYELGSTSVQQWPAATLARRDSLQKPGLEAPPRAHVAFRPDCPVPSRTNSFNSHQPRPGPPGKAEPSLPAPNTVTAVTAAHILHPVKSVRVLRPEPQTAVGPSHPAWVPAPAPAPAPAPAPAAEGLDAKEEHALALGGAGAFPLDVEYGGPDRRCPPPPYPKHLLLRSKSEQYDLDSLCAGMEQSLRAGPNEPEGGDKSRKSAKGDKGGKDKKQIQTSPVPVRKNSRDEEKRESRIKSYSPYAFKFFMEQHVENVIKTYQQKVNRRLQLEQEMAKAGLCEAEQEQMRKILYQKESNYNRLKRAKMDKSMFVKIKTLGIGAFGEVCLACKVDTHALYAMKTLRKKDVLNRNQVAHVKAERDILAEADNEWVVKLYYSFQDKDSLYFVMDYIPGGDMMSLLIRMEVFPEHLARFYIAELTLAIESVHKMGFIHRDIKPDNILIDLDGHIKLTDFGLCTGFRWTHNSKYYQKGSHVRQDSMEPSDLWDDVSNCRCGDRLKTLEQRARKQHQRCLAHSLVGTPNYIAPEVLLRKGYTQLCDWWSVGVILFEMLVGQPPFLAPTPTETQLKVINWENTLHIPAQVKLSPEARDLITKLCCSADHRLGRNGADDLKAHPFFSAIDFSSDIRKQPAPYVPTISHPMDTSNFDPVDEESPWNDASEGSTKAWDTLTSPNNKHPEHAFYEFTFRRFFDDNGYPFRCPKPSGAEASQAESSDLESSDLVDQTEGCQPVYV

ACVRL1 = ACVRL1 (Homo sapiens, UniProt P37023); settings: read-out: %Inh ACVRL1
ACVRL1, sequence (P37023 22-503): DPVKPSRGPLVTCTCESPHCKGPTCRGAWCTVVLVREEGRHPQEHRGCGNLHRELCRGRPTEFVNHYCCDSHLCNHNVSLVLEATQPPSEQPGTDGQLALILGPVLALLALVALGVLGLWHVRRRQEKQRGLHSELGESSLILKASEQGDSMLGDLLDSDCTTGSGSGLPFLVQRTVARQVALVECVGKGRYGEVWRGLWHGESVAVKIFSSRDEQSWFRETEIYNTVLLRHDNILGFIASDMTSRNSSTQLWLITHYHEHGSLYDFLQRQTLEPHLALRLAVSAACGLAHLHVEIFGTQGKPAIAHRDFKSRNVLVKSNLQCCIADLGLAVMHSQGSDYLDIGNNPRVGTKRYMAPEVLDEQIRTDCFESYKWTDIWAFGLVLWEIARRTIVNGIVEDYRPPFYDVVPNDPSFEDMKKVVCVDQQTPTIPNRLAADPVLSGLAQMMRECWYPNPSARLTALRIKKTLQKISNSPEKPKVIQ

DYRK1B = DYRK1B (Homo sapiens, UniProt Q9Y463); settings: read-out: %Inh DYRK1B
DYRK1B, sequence (Q9Y463 whole entry): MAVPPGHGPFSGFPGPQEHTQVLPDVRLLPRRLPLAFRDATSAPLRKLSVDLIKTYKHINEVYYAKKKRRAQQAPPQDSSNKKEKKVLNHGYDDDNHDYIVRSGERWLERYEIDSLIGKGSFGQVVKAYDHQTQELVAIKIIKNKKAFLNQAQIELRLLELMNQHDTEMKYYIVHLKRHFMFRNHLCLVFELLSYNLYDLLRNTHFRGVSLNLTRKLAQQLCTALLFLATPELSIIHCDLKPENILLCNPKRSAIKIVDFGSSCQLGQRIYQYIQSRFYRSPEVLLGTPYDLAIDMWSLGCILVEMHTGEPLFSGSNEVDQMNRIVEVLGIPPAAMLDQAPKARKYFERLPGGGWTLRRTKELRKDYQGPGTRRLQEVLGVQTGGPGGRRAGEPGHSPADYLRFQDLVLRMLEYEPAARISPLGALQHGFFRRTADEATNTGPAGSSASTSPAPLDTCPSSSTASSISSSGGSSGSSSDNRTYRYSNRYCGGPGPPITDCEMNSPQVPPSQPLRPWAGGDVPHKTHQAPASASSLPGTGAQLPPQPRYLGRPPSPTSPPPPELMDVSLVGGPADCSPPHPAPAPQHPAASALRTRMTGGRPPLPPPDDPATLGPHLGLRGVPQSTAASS

BRAF = BRAF (Homo sapiens, UniProt P15056); settings: read-out: %Inh BRAF
BRAF, sequence (P15056 whole entry): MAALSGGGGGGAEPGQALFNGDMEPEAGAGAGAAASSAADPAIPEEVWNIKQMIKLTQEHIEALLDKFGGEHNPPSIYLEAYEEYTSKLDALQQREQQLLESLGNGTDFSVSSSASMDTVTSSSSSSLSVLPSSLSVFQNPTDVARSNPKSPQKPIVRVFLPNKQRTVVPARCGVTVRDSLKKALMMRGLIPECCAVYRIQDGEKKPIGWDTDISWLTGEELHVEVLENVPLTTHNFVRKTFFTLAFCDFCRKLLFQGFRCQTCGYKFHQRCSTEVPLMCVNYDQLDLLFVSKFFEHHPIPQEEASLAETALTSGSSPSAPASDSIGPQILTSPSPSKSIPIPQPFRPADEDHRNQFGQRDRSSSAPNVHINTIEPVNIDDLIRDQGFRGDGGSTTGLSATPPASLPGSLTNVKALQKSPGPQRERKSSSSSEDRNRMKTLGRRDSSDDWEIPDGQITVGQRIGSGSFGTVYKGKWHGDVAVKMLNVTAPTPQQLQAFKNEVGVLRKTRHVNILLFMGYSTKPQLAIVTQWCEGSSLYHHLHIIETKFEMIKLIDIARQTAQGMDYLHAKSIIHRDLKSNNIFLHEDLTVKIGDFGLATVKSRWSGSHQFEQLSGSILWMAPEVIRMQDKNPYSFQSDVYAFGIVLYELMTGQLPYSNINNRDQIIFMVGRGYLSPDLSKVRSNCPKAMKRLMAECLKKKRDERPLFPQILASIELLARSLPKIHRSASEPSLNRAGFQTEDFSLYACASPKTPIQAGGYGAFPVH

CSNK1G2 = CSNK1G2 (Homo sapiens, UniProt P78368); settings: read-out: %Inh CSNK1G2
CSNK1G2, sequence (P78368 whole entry): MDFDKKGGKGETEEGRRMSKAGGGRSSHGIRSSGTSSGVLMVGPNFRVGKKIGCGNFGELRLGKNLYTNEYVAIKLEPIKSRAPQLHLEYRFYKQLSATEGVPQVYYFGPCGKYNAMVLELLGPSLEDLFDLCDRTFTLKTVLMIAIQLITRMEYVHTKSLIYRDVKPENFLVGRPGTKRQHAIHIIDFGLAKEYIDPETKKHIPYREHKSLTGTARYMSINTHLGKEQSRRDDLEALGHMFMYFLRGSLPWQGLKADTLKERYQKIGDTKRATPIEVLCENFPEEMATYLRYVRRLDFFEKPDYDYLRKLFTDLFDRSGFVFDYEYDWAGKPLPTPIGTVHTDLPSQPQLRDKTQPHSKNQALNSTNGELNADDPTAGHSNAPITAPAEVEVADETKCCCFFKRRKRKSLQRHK

ERK1 = ERK1 (Homo sapiens, UniProt P27361); settings: read-out: %Inh ERK1
ERK1, sequence (P27361 whole entry): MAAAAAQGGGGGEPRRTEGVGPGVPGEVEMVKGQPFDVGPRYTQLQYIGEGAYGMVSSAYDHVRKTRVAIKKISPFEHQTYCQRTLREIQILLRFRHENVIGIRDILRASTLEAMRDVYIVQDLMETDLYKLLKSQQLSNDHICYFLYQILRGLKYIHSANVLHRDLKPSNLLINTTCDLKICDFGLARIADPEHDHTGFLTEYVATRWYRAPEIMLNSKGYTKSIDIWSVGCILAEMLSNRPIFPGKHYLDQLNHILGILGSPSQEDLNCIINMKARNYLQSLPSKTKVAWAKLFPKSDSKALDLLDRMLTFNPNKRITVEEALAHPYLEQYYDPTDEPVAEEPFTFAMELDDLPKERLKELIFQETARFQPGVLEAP

CSNK1A1 = CSNK1A1 (Homo sapiens, UniProt P48729); settings: read-out: %Inh CSNK1A1
CSNK1A1, sequence (P48729 whole entry): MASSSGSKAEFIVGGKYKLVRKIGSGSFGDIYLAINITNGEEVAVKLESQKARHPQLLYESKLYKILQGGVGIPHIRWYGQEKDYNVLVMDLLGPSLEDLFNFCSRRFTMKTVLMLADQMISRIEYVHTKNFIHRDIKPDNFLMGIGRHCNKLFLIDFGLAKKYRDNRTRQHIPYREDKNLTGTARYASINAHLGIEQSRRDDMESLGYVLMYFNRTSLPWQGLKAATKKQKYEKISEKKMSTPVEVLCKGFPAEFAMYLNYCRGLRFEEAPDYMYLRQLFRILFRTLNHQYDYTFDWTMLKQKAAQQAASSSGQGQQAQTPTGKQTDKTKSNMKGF

CLK1 = CLK1 (Homo sapiens, UniProt P49759); settings: read-out: %Inh CLK1
CLK1, sequence (P49759 whole entry): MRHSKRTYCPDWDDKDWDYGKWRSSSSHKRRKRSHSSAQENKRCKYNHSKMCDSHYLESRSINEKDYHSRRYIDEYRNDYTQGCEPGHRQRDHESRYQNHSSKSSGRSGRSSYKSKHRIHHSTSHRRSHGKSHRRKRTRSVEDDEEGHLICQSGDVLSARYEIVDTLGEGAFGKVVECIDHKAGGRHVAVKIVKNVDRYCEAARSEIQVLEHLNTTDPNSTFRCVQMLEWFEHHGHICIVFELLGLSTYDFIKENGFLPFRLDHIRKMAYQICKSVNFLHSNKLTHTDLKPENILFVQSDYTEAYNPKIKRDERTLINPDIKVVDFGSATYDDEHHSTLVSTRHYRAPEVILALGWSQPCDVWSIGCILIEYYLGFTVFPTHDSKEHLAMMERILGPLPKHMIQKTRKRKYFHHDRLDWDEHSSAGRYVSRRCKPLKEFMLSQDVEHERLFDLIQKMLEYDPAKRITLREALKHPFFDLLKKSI

[1] = molecular target: JAK1(JH1domain-catalytic) (Homo sapiens, UniProt P23458); settings: read-out: %Inh JAK1(JH1domain-catalytic)
JAK1(JH1domain-catalytic), sequence (P23458 854-1154 limits assumed): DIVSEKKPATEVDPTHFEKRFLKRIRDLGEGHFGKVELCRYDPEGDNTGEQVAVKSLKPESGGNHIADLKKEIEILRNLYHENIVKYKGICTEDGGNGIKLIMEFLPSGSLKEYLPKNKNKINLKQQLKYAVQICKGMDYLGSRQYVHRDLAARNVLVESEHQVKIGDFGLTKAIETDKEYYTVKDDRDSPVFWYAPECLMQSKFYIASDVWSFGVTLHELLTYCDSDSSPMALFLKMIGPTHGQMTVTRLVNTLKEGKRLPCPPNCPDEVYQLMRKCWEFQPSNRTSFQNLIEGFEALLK

CHEK1 = molecular target: T2, CHEK1 (Homo sapiens, UniProt O14757); settings: read-out: %Inh CHEK1
T2 sequence (O14757 1-476): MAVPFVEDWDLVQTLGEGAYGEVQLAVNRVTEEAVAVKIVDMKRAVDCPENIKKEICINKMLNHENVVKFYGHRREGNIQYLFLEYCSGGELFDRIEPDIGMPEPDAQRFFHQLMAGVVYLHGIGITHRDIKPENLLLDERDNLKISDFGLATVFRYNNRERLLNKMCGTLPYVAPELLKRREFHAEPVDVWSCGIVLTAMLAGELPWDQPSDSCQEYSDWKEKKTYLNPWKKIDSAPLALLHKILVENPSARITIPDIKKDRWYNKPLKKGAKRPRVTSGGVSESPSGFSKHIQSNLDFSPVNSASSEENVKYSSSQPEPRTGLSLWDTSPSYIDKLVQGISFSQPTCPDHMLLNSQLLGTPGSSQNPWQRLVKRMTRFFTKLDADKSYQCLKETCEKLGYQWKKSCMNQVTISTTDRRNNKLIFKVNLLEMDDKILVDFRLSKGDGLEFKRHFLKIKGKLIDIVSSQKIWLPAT

HIPK4 = molecular target: T3, HIPK4 (Homo sapiens, UniProt Q8NE63); settings: read-out: %Inh HIPK4
T3 sequence (Q8NE63 1-616): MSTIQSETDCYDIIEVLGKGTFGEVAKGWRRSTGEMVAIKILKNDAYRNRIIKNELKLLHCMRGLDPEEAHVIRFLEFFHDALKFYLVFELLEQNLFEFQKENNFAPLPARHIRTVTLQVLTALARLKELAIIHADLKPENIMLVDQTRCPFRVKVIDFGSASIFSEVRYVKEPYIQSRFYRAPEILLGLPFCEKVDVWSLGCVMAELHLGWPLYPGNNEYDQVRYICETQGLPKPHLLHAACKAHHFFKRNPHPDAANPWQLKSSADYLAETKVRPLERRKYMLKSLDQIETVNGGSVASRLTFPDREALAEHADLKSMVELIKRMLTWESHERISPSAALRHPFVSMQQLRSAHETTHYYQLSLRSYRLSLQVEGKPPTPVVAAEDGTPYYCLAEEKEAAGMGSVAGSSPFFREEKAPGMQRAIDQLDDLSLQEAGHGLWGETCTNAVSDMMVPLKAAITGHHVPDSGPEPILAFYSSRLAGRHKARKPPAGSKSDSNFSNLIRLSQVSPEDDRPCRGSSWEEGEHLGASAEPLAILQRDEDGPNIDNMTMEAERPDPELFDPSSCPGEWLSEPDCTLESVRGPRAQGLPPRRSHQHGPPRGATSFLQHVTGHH

LCK, sequence (P06239 whole entry): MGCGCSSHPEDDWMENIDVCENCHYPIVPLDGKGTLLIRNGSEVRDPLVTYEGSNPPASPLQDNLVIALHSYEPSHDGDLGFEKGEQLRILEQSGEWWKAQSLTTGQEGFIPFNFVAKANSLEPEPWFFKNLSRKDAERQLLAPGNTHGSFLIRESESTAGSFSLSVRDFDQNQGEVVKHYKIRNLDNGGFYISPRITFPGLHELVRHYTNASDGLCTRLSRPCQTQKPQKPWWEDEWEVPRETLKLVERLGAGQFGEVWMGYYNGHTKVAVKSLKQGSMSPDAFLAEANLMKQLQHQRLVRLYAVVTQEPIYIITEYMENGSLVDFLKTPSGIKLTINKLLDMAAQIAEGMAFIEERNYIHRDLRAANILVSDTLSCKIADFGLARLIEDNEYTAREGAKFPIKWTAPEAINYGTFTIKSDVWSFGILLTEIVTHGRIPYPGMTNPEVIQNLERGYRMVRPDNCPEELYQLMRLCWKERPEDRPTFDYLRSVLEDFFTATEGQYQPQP

SMILES | inhibition at 1 µM (LCK) [%] | inhibition at 1 µM (LATS2) [%] | inhibition at 1 µM (ACVRL1) [%] | inhibition at 1 µM (DYRK1B) [%] | inhibition at 1 µM (BRAF) [%] | inhibition at 1 µM (CSNK1G2) [%] | inhibition at 1 µM (ERK1) [%] | inhibition at 1 µM (CSNK1A1) [%] | inhibition at 1 µM (CLK1) [%] | inhibition at 1 µM [1] [%] | inhibition at 1 µM (CHEK1) [%] | inhibition at 1 µM (HIPK4) [%]
Cn1cc(-c2cnc(N)c3c(-c4ccc5c(c4)CCN5C(=O)Cc4ccccc4)csc23)cn1 [UNC10225012A] | 93.8 | 23 | 0 | 0 | 0 | 7 | 0 | 21 | 15 | 0 | 9 | 0
CS(=O)(=O)Cc1ccc(Nc2nccc(-c3c(-c4cccc(NC(=O)C5CCCCC5)c4)nn4ncccc34)n2)cc1 [UNC10225159A] | 23 | 48 | 0 | 0 | 20 | 5 | 2 | 7 | 10 | 0 | 12 | 0
Cc1ccc(NC(=O)Nc2cccc(C(F)(F)F)c2)cc1 [UNC10225187A] | 6 | 20 | 0 | 0 | 0 | 1 | 0 | 0 | 3 | 0 | 5 | 0
COc1cccc(OC)c1C(=O)Nc1cccc(-c2nn3ccccc3c2-c2ccnc(Nc3cccc(F)c3)n2)c1 [UNC10225310A] | 24 | 10 | 7 | 24 | 17 | 17 | 1 | 25 | 21 | 0 | 13 | 84
O=c1cc(N2CCOCC2)nc2n(Cc3cccc(Cl)c3Cl)c(C3CC3)nn12 [UNC10225469A] | 23 | 27 | 9 | 0 | 0 | 5 | 0 | 0 | 27 | 9 | 15 | 0
